Results as given in patent publication US20170000133A1, “BENZOXABOROLE FUNGICIDES” (SYNGENTA PARTICIPATIONS AG, priority 2013, published 2017).

Legend:
[1] = tested on: Magnaporthe grisea (Pyricularia oryzae); type: in vivo; conditions: 200 ppm; rice leaf segments cv. Ballila, inoculated 2 days after application, assessed 5-7 days after application
[2] = tested on: Phaeosphaeria nodorum (Septoria nodorum); experiment: Phaeosphaeria nodorum (Septoria nodorum) / wheat / leaf disc preventative (glume blotch); type: in vivo; conditions: Parastagonospora nodorum, foliar, wheat leaf segments cv Kanzler, inoculated 2 days after application, assessed 5-7 days after application, read-out: disease control
Description: 5. Phaeosphaeria nodorum (Septoria nodorum)/Wheat/Leaf Disc Preventative (Glume Blotch): Wheat leaf segments (cv) Kanzler were placed on agar in a 24-well plate and sprayed with formulated test compound diluted in water at an application rate of 200 ppm. The leaf disks were inoculated with a spore suspension of the fungus 2 days after application. The inoculated test leaf disks were incubated at 20° C. and 75% relative humidity under a light regime of 12/12 h (light/dark) in a climate cabinet and the activity of a compound was assessed as percent disease control compared to untreated when an appropriate level of disease damage appears in untreated check leaf disks (5-7 days after application).

[3] = tested on: Mycosphaerella graminicola (Septoria tritici); experiment: Mycosphaerella graminicola (Septoria tritici) / liquid culture (Septoria blotch); type: cell-based; conditions: Zymoseptoria tritici, PDB potato dextrose broth, 24° C., 4-5 days after application, read-out: disease control (inhibition of growth determined photometrically)
Procedure, shortened: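 Conidia from cryostorage were suspended in potato dextrose broth and added to test compound in DMSO at 200 ppm in microtiter wells. Plates were incubated at 24° C and growth inhibition measured photometrically 4-5 days after application.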

[4] = tested on: Monographella nivalis (Microdochium nivale); experiment: Monographella nivalis (Microdochium nivale) / liquid culture (foot rot cereals); type: cell-based; conditions: PDB potato dextrose broth, 24° C., 4-5 days after application, read-out: disease control (inhibition of growth determined photometrically)
Plasmopara viticola = experiment: whole plant or invertebrate; type: in vivo; conditions: foliar, read-out: disease control
[5] = tested on: Puccinia recondita f. sp. tritici; experiment: Puccinia recondita f. sp. tritici / wheat / leaf disc preventative (brown rust); type: in vivo; conditions: foliar, wheat leaf segments cv Kanzler, inoculated 1 day after application, assessed 7-9 days after application, read-out: disease control
Description: 3. Puccinia recondita f. sp. tritici/Wheat/Leaf Disc Preventative (Brown Rust): Wheat leaf segments cultivated variety (cv) Kanzler were placed on agar in 24-well plates and sprayed with formulated test compound diluted in water at an application rate of 200 ppm. The leaf disks were inoculated with a spore suspension of the fungus 1 day after application.

Pythium ultimum = Pythium ultimum / liquid culture (seedling damping off); type: cell-based; conditions: Globisporangium ultimum; 200 ppm; potato dextrose broth, 24° C., 2-3 days after application; read-out: disease control (inhibition of growth determined photometrically)
Phytophthora infestans = experiment: whole plant or invertebrate; type: in vivo; conditions: in Solanum lycopersicum, foliar, read-out: disease control
[6] = tested on: Botryotinia fuckeliana (Botrytis cinerea); experiment: Botryotinia fuckeliana (Botrytis cinerea) / liquid culture (gray mould); type: cell-based; conditions: Vogels broth, 24° C., 3-4 days after application, read-out: disease control (inhibition of growth determined photometrically)
Description: 10. Botryotinia fuckeliana (Botrytis cinerea)/Liquid Culture (Gray Mould): Conidia of the fungus from cryogenic storage were directly mixed into nutrient broth (Vogels broth). After placing a DMSO solution of test compound into a 96-well microtiter plate at an application rate of 200 ppm, the nutrient broth containing the fungal spores was added. The test plates were incubated at 24° C. and the inhibition of growth was determined photometrically 3-4 days after application.

[7] = tested on: Glomerella lagenarium (Colletotrichum lagenarium); experiment: Glomerella lagenarium (Colletotrichum lagenarium) / liquid culture (anthracnose); type: cell-based; conditions: Colletotrichum orbiculare, PDB potato dextrose broth, 24° C., 3-4 days after application, read-out: disease control (inhibition of growth measured photometrically)
Procedure, shortened: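 Conidia of G. lagenarium from cryogenic storage were suspended in potato dextrose broth and added to test compound in DMSO at 200 ppm. Plates were incubated at 24° C, and growth inhibition was read photometrically 3-4 days after application.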

[8] = tested on: Mycosphaerella arachidis (Cercospora arachidicola); experiment: Mycosphaerella arachidis (Cercospora arachidicola) / liquid culture (early leaf spot); type: cell-based; conditions: PDB potato dextrose broth, 24° C., 4-5 days after application, read-out: disease control (inhibition of growth determined photometrically)
Procedure, shortened: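 Conidia from cryogenic storage mixed into potato dextrose broth and added to compound at 200 ppm in DMSO. Incubation at 24° C.; growth inhibition read photometrically 4-5 days after application.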

Gaeumannomyces graminis = Gaeumannomyces graminis / liquid culture (take-all of cereals); type: cell-based; conditions: PDB potato dextrose broth, 24° C., 4-5 days after application, read-out: disease control (inhibition of growth determined photometrically)
Procedure, shortened: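 Cryo-stored mycelial fragments in potato dextrose broth exposed to compound in DMSO at 200 ppm. Incubated at 24 °C; growth inhibition read photometrically 4–5 days after application.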

Fusarium culmorum = experiment: microbe, parasite or virus in culture; type: cell-based; conditions: read-out: disease control (inhibition of growth determined visually)
[9] = tested on: Thanatephorus cucumeris (Rhizoctonia solani); experiment: Thanatephorus cucumeris (Rhizoctonia solani) / liquid culture (foot rot, damping-off); type: cell-based; conditions: PDB potato dextrose broth, 24° C., 3-4 days after application, read-out: disease control (inhibition of growth determined photometrically)
Procedure, shortened: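 Mycelial fragments from fresh liquid culture were suspended in potato dextrose broth and added to compound in DMSO at 200 ppm. After 3-4 days at 24 °C, growth inhibition was measured photometrically.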

Sclerotinia sclerotiorum = Sclerotinia sclerotiorum / liquid culture (cottony rot); type: cell-based; conditions: PDB potato dextrose broth, 24° C., 3-4 days after application, read-out: disease control (inhibition of growth determined visually)
Description: 18. Sclerotinia sclerotiorum/Liquid Culture (Cottony Rot): Mycelia fragments of a newly grown liquid culture of the fungus were directly mixed into nutrient broth (PDB potato dextrose broth). After placing a (DMSO) solution of the test compounds into a microtiter plate (96-well format) the nutrient broth containing the fungal material was added. The test plates were incubated at 24° C. and the inhibition of growth was determined visually 3-4 days after application.

[10] = tested on: Puccinia recondita f. sp. tritici; experiment: Puccinia recondita f. sp. tritici / wheat / leaf disc curative (brown rust); type: in vivo; conditions: foliar, 192 h, wheat leaf segments, applied one day after inoculation, assessed 8 dpi, read-out: disease control
Description: 4. Puccinia recondita f. sp. tritici/Wheat/Leaf Disc Curative (Brown Rust) Wheat leaf segments are placed on agar in multiwell plates (24-well format). The leaf disks are then inoculated with a spore suspension of the fungus. One day after inoculation the test solution is applied. After appropriate incubation the activity of a compound is assessed 8 dpi (days after inoculation) as curative fungicidal activity. Dose range: 200-22 ppm.

Structure (SMILES)	disease control [1]	pest or weed control at 200 ppm [2] [%]	inhibition at 200 ppm [3] [%]	inhibition at 200 ppm [4] [%]	pest or weed control at 200 ppm (Plasmopara viticola) [%]	pest or weed control at 200 ppm [5] [%]	inhibition at 200 ppm (Pythium ultimum) [%]	pest or weed control at 200 ppm (Phytophthora infestans) [%]	inhibition at 200 ppm [6] [%]	inhibition at 200 ppm [7] [%]	inhibition at 200 ppm [8] [%]	inhibition at 200 ppm (Gaeumannomyces graminis) [%]	inhibition at 200 ppm (Fusarium culmorum) [%]	inhibition at 200 ppm [9] [%]	inhibition at 200 ppm (Sclerotinia sclerotiorum) [%]	pest or weed control at 200 ppm [10] [%]	melting point [°C]
COC(=O)c1cc2c(cc1Cl)COB2O [Compound 21]	at least 80%	–	–	–	–	–	–	–	–	–	–	–	–	–	–	–	–
CC(C)c1ccc(NC(=O)c2cc3c(cc2Cl)COB3O)cc1 [Compound 110]	–	≥ 80	≥ 80	≥ 80	–	–	–	–	–	–	–	–	–	–	–	–	–
O=C(Nc1ccccc1C(=O)c1ccccc1)c1cc2c(cc1F)COB2O [Compound 161]	–	≥ 80	≥ 80	≥ 80	≥ 80	≥ 80	≥ 80	–	–	–	–	–	–	–	–	–	–
O=C(OCC1CC1)c1cc2c(cc1Cl)COB2O [Compound 202]	–	≥ 80	≥ 80	≥ 80	–	–	≥ 80	≥ 80	≥ 80	≥ 80	≥ 80	≥ 80	≥ 80	≥ 80	≥ 80	–	–
C#CCCCOC(=O)c1cc2c(cc1Cl)COB2O [Compound 208]	–	≥ 80	≥ 80	≥ 80	≥ 80	–	≥ 80	≥ 80	–	≥ 80	–	≥ 80	–	–	–	–	–
O=C(OCC#Cc1ccccc1)c1cc2c(cc1Cl)COB2O [Compound 232]	–	≥ 80	≥ 80	≥ 80	≥ 80	–	≥ 80	–	–	≥ 80	≥ 80	≥ 80	≥ 80	≥ 80	–	–	–
O=C(OCCF)c1cc2c(cc1Cl)COB2O [Compound 233]	–	≥ 80	≥ 80	≥ 80	–	–	≥ 80	–	–	≥ 80	≥ 80	≥ 80	≥ 80	–	–	≥ 80	–
CCC#CCOC(=O)c1ccc2c(c1)B(O)OC2 [Compound 318]	–	≥ 80	≥ 80	≥ 80	≥ 80	–	≥ 80	–	≥ 80	–	≥ 80	≥ 80	≥ 80	≥ 80	–	–	–
O=C(OCC1CCC1)c1ccc2c(c1)B(O)OC2 [Compound 351]	–	≥ 80	≥ 80	≥ 80	≥ 80	–	≥ 80	–	–	≥ 80	≥ 80	≥ 80	≥ 80	≥ 80	–	≥ 80	–
COC(=O)COC(=O)c1cc2c(cc1F)COB2O [Compound 419]	–	–	≥ 80	≥ 80	≥ 80	≥ 80	≥ 80	–	≥ 80	≥ 80	≥ 80	≥ 80	≥ 80	≥ 80	≥ 80	≥ 80	112 to 114
COC(=O)c1cc2c(cc1C)COB2O [Compound 446]	–	≥ 80	≥ 80	≥ 80	–	–	≥ 80	–	–	≥ 80	≥ 80	≥ 80	≥ 80	≥ 80	≥ 80	–	136 to 138
